Assay results as given in PubChem BioAssay (NCI).
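All cell lines were grown in 96-well plates and treated with compound for 48 hours. At the TGI there is no net growth.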

Key:
Assay in all cases: inhibition of tumour cell growth, NCI panel, 48 h
[1] = system: MDA-N
[2] = system: A498 renal
[3] = system: PC-3 prostate
[4] = system: SNB-75 CNS
[5] = system: NCI/ADR-RES ovarian
[6] = system: DU-145 prostate
[7] = system: COLO 205 colon
[8] = system: OVCAR-5 ovarian
[9] = system: HT29 colon
[10] = system: SK-MEL-2 melanoma
[11] = system: NCI-H23 lung
[12] = system: U251 CNS
[13] = system: HCT-116 colon
[14] = system: SK-OV-3 ovarian
[15] = system: SN12C renal
[16] = system: CCRF-CEM leukemia
[17] = system: SF-268 CNS
[18] = system: M14 melanoma
[19] = system: TK-10 renal
[20] = system: SK-MEL-5 melanoma
[21] = system: EKVX NSCLC
[22] = system: MCF7 breast
[23] = system: SW-620 colon
[24] = system: HOP-62 NSCLC
[25] = system: NCI-H522 lung
[26] = system: SNB-19 CNS
[27] = system: IGROV1 ovarian
[28] = system: ACHN renal
[29] = system: LOX IMVI melanoma
[30] = system: MDA-MB-435
[31] = system: NCI-H226 lung
[32] = system: HCT-15 colon
[33] = system: OVCAR-3 ovarian
[34] = system: UO-31 renal
[35] = system: A549 NSCLC
[36] = system: SK-MEL-28 melanoma
[37] = system: OVCAR-8 ovarian
[38] = system: K-562 leukemia
[39] = system: KM12 colon
[40] = system: MALME-3M melanoma
[41] = system: HS 578T breast
[42] = system: MDA-MB-231 breast
[43] = system: HOP-92 NSCLC
[44] = system: SR leukemia
[45] = system: MOLT-4 leukemia
[46] = system: 786-0 renal
[47] = system: UACC-62 melanoma
[48] = system: SF-295 CNS
[49] = system: RPMI-8226 leukemia
[50] = system: NCI-H460 lung
[51] = system: OVCAR-4 ovarian
[52] = system: CAKI-1 renal
[53] = system: RXF 393 renal
[54] = system: SF-539 CNS
[55] = system: T-47D breast
[56] = system: UACC-257 melanoma
[57] = system: HL-60(TB) leukemia
[58] = system: HCC-2998 colon

O=C1/C(=C/c2ccc(Cl)cc2)NC(=S)N1CN1CCCCC1
TGI [1]: > 100 µM
TGI [2]: > 100 µM
TGI [3]: > 100 µM
TGI [4]: > 100 µM
TGI [5]: 72 µM
TGI [6]: > 100 µM
TGI [7]: 64.1 µM
TGI [8]: > 100 µM
TGI [9]: 29.3 µM
TGI [10]: > 100 µM
TGI [11]: > 100 µM
TGI [12]: > 100 µM
TGI [13]: > 100 µM
TGI [14]: > 100 µM
TGI [15]: > 100 µM
TGI [16]: 78.2 µM
TGI [17]: 78.8 µM
TGI [18]: > 100 µM
TGI [19]: > 100 µM
TGI [20]: 97.4 µM
TGI [21]: > 100 µM
TGI [22]: 82.1 µM
TGI [23]: 45.3 µM
TGI [24]: > 100 µM
TGI [25]: 49.3 µM
TGI [26]: 68.7 µM
TGI [27]: > 100 µM
TGI [28]: > 100 µM
TGI [29]: > 100 µM
TGI [30]: > 100 µM
TGI [31]: > 100 µM
TGI [32]: 58.2 µM
TGI [33]: > 100 µM
TGI [34]: > 100 µM
TGI [35]: > 100 µM
TGI [36]: > 100 µM
TGI [37]: > 100 µM
TGI [38]: > 100 µM
TGI [39]: > 100 µM
TGI [40]: 88.7 µM
TGI [41]: 62 µM
TGI [42]: > 100 µM
TGI [43]: > 100 µM
TGI [44]: > 100 µM
TGI [45]: > 100 µM
TGI [46]: > 100 µM
TGI [47]: 54.4 µM
TGI [48]: > 100 µM
TGI [49]: 76.5 µM

C/C=C/C(C/C=C(\C)CO[Si](C)(C)C(C)(C)C)O[Si](C)(C)C(C)(C)C (stereo not given)
TGI [1]: > 100 µM
TGI [2]: > 100 µM
TGI [3]: > 100 µM
TGI [4]: > 100 µM
TGI [5]: > 100 µM
TGI [6]: > 100 µM
TGI [7]: > 100 µM
TGI [8]: > 100 µM
TGI [9]: > 100 µM
TGI [10]: > 100 µM
TGI [50]: > 100 µM
TGI [51]: > 100 µM
TGI [11]: > 100 µM
TGI [13]: > 100 µM
TGI [14]: > 100 µM
TGI [15]: > 100 µM
TGI [16]: > 100 µM
TGI [17]: > 100 µM
TGI [18]: > 100 µM
TGI [19]: > 100 µM
TGI [20]: > 100 µM
TGI [52]: > 100 µM
TGI [21]: > 100 µM
TGI [22]: > 100 µM
TGI [23]: > 100 µM
TGI [53]: > 100 µM
TGI [24]: > 100 µM
TGI [25]: > 100 µM
TGI [26]: > 100 µM
TGI [27]: > 100 µM
TGI [28]: > 100 µM
TGI [29]: > 100 µM
TGI [30]: > 100 µM
TGI [31]: > 100 µM
TGI [54]: > 100 µM
TGI [32]: > 100 µM
TGI [33]: > 100 µM
TGI [34]: > 100 µM
TGI [35]: > 100 µM
TGI [55]: > 100 µM
TGI [36]: > 100 µM
TGI [56]: > 100 µM
TGI [37]: > 100 µM
TGI [38]: > 100 µM
TGI [39]: > 100 µM
TGI [57]: > 100 µM
TGI [58]: > 100 µM
TGI [40]: > 100 µM
TGI [41]: > 100 µM
TGI [42]: > 100 µM
TGI [44]: > 100 µM
TGI [45]: > 100 µM
TGI [46]: > 100 µM
TGI [47]: > 100 µM
TGI [48]: > 100 µM
TGI [49]: > 100 µM
